Laboratory results reported in patent EP0205025A1, “Fluorine derivatives of vitamin D3 and cell differentiation-inducing agents containing the same as an active ingredient” (SUMITOMO PHARMACEUTICALS COMPANY, LIMITED, priority 1985, dated 1986).

Tests used:
[1] = test system: HL-60 cells; test: Binding property of monoclonal antibodies (MAS 072 anti-human monocyte, OKT 9 anti-human transferrin receptor) to treated HL-60 cells, indirect fluorescent antibody technique, FACS; assay type: cell-based; details: for Binding property of monoclonal antibody MAS072 (%): anti-human monocyte antibody, control 17.0; for Binding property of monoclonal antibody OKT9 (%): anti-human transferrin receptor antibody, control 95.7
Procedure: HL-60 cells wre treated with the agent as described above, and then stained by indirect fluorescent antibody technique using monoclonal antibodies [MAS 072 (Sera-lab) anti-human monocyte and OKT 9 (Ortho-mune) anti-human transferrin receptor] and a fluorescent antibody [FITC-anti-mouse IgG (Miles)], and the resulting fluorescence intensity was determined by FACS to obtain the binding property of the monoclonal antibody in terms of a percentage.

[2] = test system: HL-60 cells; test: Proliferation-suppression rate of HL-60 cells (Coulter counter); assay type: cell-based; details: Homo sapiens, 96 h, HL-60, 4 days, relative to untreated group; for inhibition at 0.01 µM: 1x10^-8 M (column of 1α, 25-(OH)2D3 printed 1x10^8); for inhibition at 0.003 µM: 3x10^-9 M
Procedure: An HL-60 cell fluid adjusted to a concentration of 5 x 10^4 cells/ml was incorporated with each of the agents to be tested and cultivated in a carbon dioxide incubator at 37°C for 4 days. After the cultivation, the number of cells was measured by means of a Coulter counter. The percentage of the number thus measured relative to the number of cells in an untreated group was calculated, from which the proliferation-suppression rate was obtained.

[3] = test system: HL-60 cells; test: NBT reduction of HL-60 cells after treatment (TPA stimulation, microscopy); assay type: cell-based, human; details: HL-60 treated 4 days, percentage of NBT reduction-positive cells of 200 cells
Procedure: Thereafter, the cells were smeared onto a slide glass, subjected to giemsa staining, and the coloration of cells was examined under a microscope. The number of colored cells was measured for 200 cells, and the results were expressed in terms of the percentage of NBT reduction- positive cells.

[4] = 1x10^-8 M (column of 1α, 25-(OH)2D3 printed 1x10^8)

## C=C1C(=CC=C2CCCC3(C)C2CCC3C(C)CCCC(C)(C)O)CC(O)CC1O (stereo not drawn) [1α, 25-(OH)2D3, 1α, 25-dihydroxyvitamin D3]
[1]; [4]
  Binding property of monoclonal antibody MAS072 (%): 55.8%
  Binding property of monoclonal antibody OKT9 (%): 22.6%
[1]; 3x10^-9 M
  Binding property of monoclonal antibody OKT9 (%): 61.5%
[2]
  inhibition at 0.01 µM: 66%
  inhibition at 0.003 µM: 47.2%
[3]; [4]
  NBT reduction rate (%): 87.0%
[3]; 3x10^-9 M
  NBT reduction rate (%): 48.5%

## C=C1C(=CC=C2CCCC3(C)C2CCC3C(C)CCCC(C(F)(F)F)C(F)(F)F)CC(O)CC1O (centres unmarked) [Compound A, 26,26,26,27,27,27-hexafluoro-la-hydroxyvitamin D3]
[1]; [4]
  Binding property of monoclonal antibody MAS072 (%): 79.0%
  Binding property of monoclonal antibody OKT9 (%): 11.1%
[1]; 3x10^-9 M
  Binding property of monoclonal antibody OKT9 (%): 16.7%
[2]
  inhibition at 0.01 µM: 74.9%
  inhibition at 0.003 µM: 58.5%
[3]; [4]
  NBT reduction rate (%): 91.5%
[3]; 3x10^-9 M
  NBT reduction rate (%): 77.0%
